# Assay results as given in patent US8293729B2 (Boehringer Ingelheim International GmbH, priority 2009, dated 2012).
# Biological target: T1, human GPR119 receptor (Homo sapiens, UniProt Q8TDV5, S329A/T327A)
# T1 construct: N-terminal leader […]; expressed in transfected cells
# T1 sequence (Q8TDV5 with tags, fused parts or gaps T327A/S329A): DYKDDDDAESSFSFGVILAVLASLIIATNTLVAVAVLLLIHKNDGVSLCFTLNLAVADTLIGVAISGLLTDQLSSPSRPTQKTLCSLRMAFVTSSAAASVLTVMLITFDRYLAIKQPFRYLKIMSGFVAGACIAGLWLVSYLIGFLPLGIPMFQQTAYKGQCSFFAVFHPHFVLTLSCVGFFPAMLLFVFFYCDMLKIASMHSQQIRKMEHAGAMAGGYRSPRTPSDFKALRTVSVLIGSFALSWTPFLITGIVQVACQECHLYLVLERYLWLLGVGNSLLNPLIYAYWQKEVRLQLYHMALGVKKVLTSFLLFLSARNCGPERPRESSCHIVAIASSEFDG
# Experiment: cAMP assay (LANCE cAMP-384) in HEK293 cells stably expressing mutant human GPR119 receptor
# Format: cell-based
# Settings: HEK293, 20 min; 10 μM; the 28th table; read-out: stimulation in % at 10 μM
# Outline: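 HEK293 cells stably expressing human GPR119 (T327A/S329A, modified N-terminus), 1000 cells/well, exposed to compound for 20 min at 37° C. cAMP quantified by LANCE TR-FRET against a standard curve; EC50 from 12 points, 30 μM to 100 pM, or % stimulation at 10 μM.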
row,SMILES,activation at 10 µM
1,CC(C)OC(=O)N1CCC(ON=C2CCN(c3ncc(N4CCCC4=O)cn3)CC2)CC1 [Example 51-6],98%

# Same assay, conditions: HEK293, 20 min; at 10 μM; printed in EC50 column of the 36th table; read-out: stimulation in % at 10 μM
row,SMILES,activation at 10 µM
1,CS(=O)(=O)c1ccc(N2CCC(=NOC3CCN(Cc4ccc5c(c4)CCO5)CC3)CC2)c(F)c1 [Example 66-35],61%

# Same assay, conditions: cAMP accumulation, HEK293 cells stably expressing mutant human GPR119; read-out: EC50
row,SMILES,EC50
1,CC(C)OC(=O)N1CCC(ON=C2CCN(c3ncnc(F)c3F)CC2)CC1 [Example 2-58],603 nM
2,COCCN(C)Cc1cc(F)c(N2CCC(=NOC3CCN(C(=O)OC(C)C)CC3)CC2)cc1F [Example 5-5],> 10000 nM
3,"CC(=O)OCc1cc(F)c(N2CCC(=NOC3CCN(C(=O)OC(C)C)CC3)CC2)cc1F [Example 11-1, 4-[1-(4-acetoxymethyl-2,5-difluoro-phenyl)-piperidin-4-ylideneaminooxy]-piperidine-1-carboxylic acid isopropyl ester]",67 nM
4,CC(C)OC(=O)N1CCC(ON=C2CCN(c3cc(F)c(-c4ccccn4)cc3F)CC2)CC1 [Example 27-27],159 nM
5,CC(CO)CNC(=O)c1cc(F)c(N2CCC(=NOC3CCN(C(=O)OC(C)C)CC3)CC2)cc1F (stereo not drawn) [Example 2-77],47 nM
6,Cc1cc(N2CCC(=NOC3CCN(C(=O)OC(C)C)CC3)CC2)c(F)cc1C(N)=O [Example 2-76],534 nM
7,CC(C)OC(=O)N1CCC(ON=C2CCN(c3cc(F)c(-c4cc[nH]n4)cc3F)CC2)CC1 [Example 27-9],232 nM
8,CC(C)OC(=O)N1CCC(ON=C2CCN(c3cc(F)c(-c4ccc5[nH]ccc5c4)cc3F)CC2)CC1 [Example 27-32],1380 nM
9,CC(C)OC(=O)N1CCC(ON=C2CCN(c3cc(F)c(S(C)(=O)=O)cc3F)CC2)CC1 [Example 2-60],28 nM
10,CC(C)OC(=O)N1CCC(ON=C2CCN(c3cc(F)c(CN4CCN(C)C4=O)cc3F)CC2)CC1 [Example 15-2],282 nM
11,CC(C)OC(=O)N1CCC(ON=C2CCN(c3cc(F)c(Cn4cnc5ncccc54)cc3F)CC2)CC1 [Example 14-5],374 nM
12,CC(C)OC(=O)N1CCC(ON=C2CCN(c3cc(F)c(CN4CCOC(CC(=O)O)C4)cc3F)CC2)CC1 (stereo not drawn) [Example 5-2],5880 nM
13,CC(C)OC(=O)N1CCC(ON=C2CCN(c3ncc(Cl)c(Cl)n3)CC2)CC1 [Example 2-50],> 10000 nM
14,CC(C)OC(=O)N1CCC(ON=C2CCN(c3cnccn3)CC2)CC1 [Example 2-11],> 10000 nM
15,CC(C)OC(=O)N1CCC(ON=C2CCN(c3cc(F)c(Cn4ccnn4)cc3F)CC2)CC1 [Example 14-12],32 nM
16,Cc1noc(C)c1-c1cc(F)c(N2CCC(=NOC3CCN(C(=O)OC(C)C)CC3)CC2)cc1F [Example 27-2],> 10000 nM
17,CC(C)OC(=O)N1CCC(ON=C2CCN(c3cc(F)c(-c4cncnc4)cc3F)CC2)CC1 [Example 27-6],243 nM
18,"CC(=O)Nc1cc(F)c(N2CCC(=NOC3CCN(C(=O)OC(C)C)CC3)CC2)cc1F [Example 35-1, 4-[1-(4-Acetylamino-2,5-difluoro-phenyl)-piperidin-4-ylideneaminooxy]-piperidine-1-carboxylic acid isopropyl ester]",17 nM
19,CC(C)OC(=O)N1CCC(ON=C2CCN(c3cc(O)ncc3F)CC2)CC1 [Example 2-74],> 10000 nM
20,CC(C)OC(=O)N1CCC(ON=C2CCN(c3c(Cl)cncc3Cl)CC2)CC1 [Example 2-39],1680 nM
21,CC(C)OC(=O)N1CCC(ON=C2CCN(c3cc(F)c(N4CCCC4=O)cc3F)CC2)CC1 [Example 22-7],157 nM
22,CC(C)OC(=O)N1CCC(ON=C2CCN(c3ncc(F)cc3F)CC2)CC1 [Example 2-69],1020 nM

# Same assay, conditions: the 15th table; read-out: EC50
row,SMILES,EC50
1,CC(C)OC(=O)N1CCC(ON=C2CCN(c3cc(F)c(C(=O)NCCN(C)C)cc3F)CC2)CC1 [Example 29-2],450 nM
2,CC(C)OC(=O)N1CCC(ON=C2CCN(c3cc(F)c(C(=O)NCCC4CCNCC4)cc3F)CC2)CC1 [Example 29-32],73 nM
3,CC(C)OC(=O)N1CCC(ON=C2CCN(c3cc(F)c(C(=O)N4CCC(CN5CCCC5)CC4)cc3F)CC2)CC1 [Example 29-48],69 nM
4,CC(CO)NC(=O)c1cc(F)c(N2CCC(=NOC3CCN(C(=O)OC(C)C)CC3)CC2)cc1F (stereo not drawn) [Example 29-8],81 nM

# Same assay, conditions: the 19th table; unit inferred; read-out: EC 50
row,SMILES,EC50
1,CCc1cnc(N2CCC(ON=C3CCN(c4cc(F)c(C(=O)N5CC[C@@H](N)C5)cc4F)CC3)CC2)nc1 [Example 29-118],201 nM

# Same assay, conditions: the 25th table; read-out: EC50
row,SMILES,EC50
1,CC(C)OC(=O)N1CCC(ON=C2CCN(c3cc(F)c(/C=C/C#N)cc3F)CC2)CC1 [Example 39-2],157 nM

# Same assay, conditions: the 26th table; read-out: EC50
row,SMILES,EC50
1,CC(C)OC(=O)N1CCC(ON=C2CCN(c3ncc(S(C)(=O)=O)cn3)CC2)CC1 [Example 46-4],157 nM

# Same assay, conditions: the 27th table; read-out: EC50
row,SMILES,EC50
1,"CC(C)OC(=O)N1CCC(ON=C2CCN(c3cc(F)c(CO)cc3F)CC2)CC1 [Example 48-1, 4-[1-(2,5-Difluoro-4-hydroxymethyl-phenyl)-piperidin-4-ylideneaminooxy]-piperidine-1-carboxylic acid isopropyl ester]",9 nM

# Same assay, conditions: the 28th table; read-out: EC50
row,SMILES,EC50
1,CC(C)OC(=O)N1CCC(ON=C2CCN(c3ncc(N4CCCC4=O)cc3F)CC2)CC1 [Example 51-3],401 nM

# Same assay, conditions: the 30th table; read-out: EC50
row,SMILES,EC50
1,CC(C)OC(=O)N1CCC(ON=C2CCN(c3ncc(Cn4nccn4)cc3F)CC2)CC1 [Example 54-3],765 nM
2,Cc1nnnn1Cc1cnc(N2CCC(=NOC3CCN(C(=O)OC(C)C)CC3)CC2)c(F)c1 [Example 54-6],1150 nM

# Same assay, conditions: the 32nd table; read-out: EC50
row,SMILES,EC50
1,CS(=O)(=O)c1ccc(N2CCC(=NOC3CCN(c4ccncc4)CC3)CC2)c(F)c1 [Example 63-4],> 10000 nM
2,Cc1cccnc1N1CCC(ON=C2CCN(c3ccc(S(C)(=O)=O)cc3F)CC2)CC1 [Example 63-3],> 10000 nM

# Same assay, conditions: the 33rd table; read-out: EC50
row,SMILES,EC50
1,C#CCOC(=O)N1CCC(ON=C2CCN(c3ccc(S(C)(=O)=O)cc3F)CC2)CC1 [Example 64-3],446 nM
2,"CS(=O)(=O)c1ccc(N2CCC(=NOC3CCN(C(=O)OC4CCC4)CC3)CC2)c(F)c1 [Example 64-1, 4-[1-(2-Fluoro-4-methanesulfonyl-phenyl)-piperidin-4-ylideneaminooxy]-piperidine-1-carboxylic acid cyclobutyl ester]",81 nM
3,CS(=O)(=O)c1ccc(N2CCC(=NOC3CCN(C(=O)O[C@H]4CNC(=O)C4)CC3)CC2)c(F)c1 [Example 64-11],> 10000 nM

# Same assay, conditions: the 34th table, compounds 65-1 to 65-24; read-out: EC50
row,SMILES,EC50
1,CS(=O)(=O)c1ccc(N2CCC(=NOC3CCN(C(=S)NC4CC4)CC3)CC2)c(F)c1 [Example 65-10],> 10000 nM
2,"CCN(CC)C(=O)CN1CCC(ON=C2CCN(c3ccc(S(C)(=O)=O)cc3F)CC2)CC1 [Example 65-1, N,N-Diethyl-2-{4-[1-(2-fluoro-4-methanesulfonyl-phenyl)-piperidin-4-ylideneaminooxy]-piperidin-1-yl}-acetamide]",> 10000 nM
3,CS(=O)(=O)c1ccc(N2CCC(=NOC3CCN(C(=O)c4ccc(F)cc4)CC3)CC2)c(F)c1 [Example 65-22],132 nM
4,CS(=O)(=O)c1ccc(N2CCC(=NOC3CCN(C(=O)Nc4ccccc4)CC3)CC2)c(F)c1 [Example 65-17],2040 nM

# Same assay, conditions: the 35th table, compounds 65-25 to 65-36; read-out: EC50
row,SMILES,EC50
1,CS(=O)(=O)c1cc(F)c(N2CCC(=NOC3CCN(C(=O)Cc4ccccc4)CC3)CC2)cc1F [Example 65-28],240 nM

# Same assay, conditions: the 36th table, compounds 66-1 to 66-51; read-out: EC50
row,SMILES,EC50
1,COc1ccc(CN2CCC(ON=C3CCN(c4ccc(S(C)(=O)=O)cc4F)CC3)CC2)cc1F [Example 66-38],435 nM
2,Cc1cccc(CN2CCC(ON=C3CCN(c4ccc(S(C)(=O)=O)cc4F)CC3)CC2)c1 [Example 66-25],605 nM
3,CS(=O)(=O)c1ccc(N2CCC(=NOC3CCN(Cc4ccc(Br)cc4)CC3)CC2)c(F)c1 [Example 66-41],609 nM
4,COc1ccc(CN2CCC(ON=C3CCN(c4ccc(S(C)(=O)=O)cc4F)CC3)CC2)cc1 [Example 66-45],6000 nM
5,CS(=O)(=O)c1ccc(N2CCC(=NOC3CCN(Cc4ccccc4C#N)CC3)CC2)c(F)c1 [Example 66-19],> 10000 nM
6,Cc1ccc(CN2CCC(ON=C3CCN(c4ccc(S(C)(=O)=O)cc4F)CC3)CC2)c(F)c1 [Example 66-47],909 nM

# Same assay, conditions: the 37th table, compounds 66-52 to 66-64; read-out: EC50
row,SMILES,EC50
1,CCc1ccc(C(C)N2CCC(ON=C3CCN(c4cc(F)c(S(C)(=O)=O)cc4F)CC3)CC2)cc1 (stereo not drawn) [Example 66-58],72 nM

# Same assay, conditions: the 38th table, compounds 66-65 to 66-72; read-out: EC50
row,SMILES,EC50
1,CCc1ccc(CN2CCC(ON=C3CCN(c4cc(F)c(C(=O)NC)cc4F)CC3)CC2)cc1 [Example 66-71],79 nM

# Same assay, conditions: the 43rd table, compounds 75-1 to 75-38; read-out: EC50
row,SMILES,EC50
1,CC(C)OC(=O)N1CCC(ON=C2CCN(c3cc(F)c(CC(=O)NCC4CCCNC4)cc3F)CC2)CC1 (stereo not drawn) [Example 75-23],380 nM
2,CC(C)OC(=O)N1CCC(ON=C2CCN(c3cc(F)c(CC(=O)NC4CCCNC4)cc3F)CC2)CC1 (stereo not drawn) [Example 75-16],122 nM
3,CC(C)OC(=O)N1CCC(ON=C2CCN(c3cc(F)c(CC(=O)N4CCC(CN5CCCC5)CC4)cc3F)CC2)CC1 [Example 75-34],146 nM
4,CC(C)OC(=O)N1CCC(ON=C2CCN(c3cc(F)c(CC(=O)N4CCC[C@@H]4CN4CCCC4)cc3F)CC2)CC1 [Example 75-28],246 nM
